Assays:
Assay type in all cases: cell-based
A375 melanoma cells [1] = assay: Exosome uptake assay (DiI-labeled exosomes, flow cytometry / fluorescence microscopy); conditions: 24 hrs treatment
Experimental: A375 melanoma exosomes were isolated from conditioned media using differential ultracentrifugation [Thery et al. 2006]. In brief, cells were cultured in exosome deficient media for 72 hours at which point the cell culture media was collected and centrifuged at 2000×g to remove dead cells and debris. Next, larger vesicles and cell debris were removed by centrifugation at 10,000×g for 30 minutes. Exosomes were then pelleted by centrifugation at 100,000×g for 70 minutes, and subsequently washed in PBS by another 100,000×g centrifugation step for 70 minutes. Exosomes were re-suspended in PBS. Protein concentration of exosomes was analyzed by BCA Protein assay (Thermo Scientific). […] In order to test if HDL NPs quenched exosome fluorescence, we incubated HDL NPs with fluorescently labeled exosomes for 4 hours and then measured the fluorescent signal.
The cellular uptake of exosomes was measured by fluorescence microscopy and flow cytometry after cell treatments. […] For fluorescence microscopy experiments, cells were plated on coverslips coated with 0.1% gelatin. Exosome uptake was measured over the course of 24 hours using a BD LSR Fortessa flow cytometer (Robert H. Lurie Comprehensive Cancer Center Flow Cytometry Core) or a Nikon A1R fluorescence microscope (Northwestern University Nikon Imaging Facility).

A375 melanoma cells [2] = assay: 3H-cholesterol efflux assay; conditions: BLT-1 1 μM; acceptors 500 nM
Experimental: A375 cells were cultured in DMEM containing 1 μCi/mL [1,2,-^3H] cholesterol (Perkin-Elmer) overnight to label the cellular cholesterol pool. Cells were then washed in PBS and resuspended in serum free media. Human HDL or HDL NPs were added to the culture media and allowed to incubate for 6 hours. Cell culture media was then collected and subjected to liquid scintillation counting. The percentage of cholesterol efflux was determined by using the formula counts media/(counts cells+counts media)×100. Efflux of cholesterol in the absence of an acceptor was also measured and interpreted along with other results.

GFP-SR-B1 = target: T1, GFP-SR-B1 (Homo sapiens, UniProt Q8WTV0); assay: GFP-SR-B1 clustering and dynamics (confocal imaging, computer vision analysis); conditions: A375 cells expressing GFP-SR-B1, 24 hrs treatment
T1 construct: expressed in transfected cells
T1 sequence (Q8WTV0 1-552): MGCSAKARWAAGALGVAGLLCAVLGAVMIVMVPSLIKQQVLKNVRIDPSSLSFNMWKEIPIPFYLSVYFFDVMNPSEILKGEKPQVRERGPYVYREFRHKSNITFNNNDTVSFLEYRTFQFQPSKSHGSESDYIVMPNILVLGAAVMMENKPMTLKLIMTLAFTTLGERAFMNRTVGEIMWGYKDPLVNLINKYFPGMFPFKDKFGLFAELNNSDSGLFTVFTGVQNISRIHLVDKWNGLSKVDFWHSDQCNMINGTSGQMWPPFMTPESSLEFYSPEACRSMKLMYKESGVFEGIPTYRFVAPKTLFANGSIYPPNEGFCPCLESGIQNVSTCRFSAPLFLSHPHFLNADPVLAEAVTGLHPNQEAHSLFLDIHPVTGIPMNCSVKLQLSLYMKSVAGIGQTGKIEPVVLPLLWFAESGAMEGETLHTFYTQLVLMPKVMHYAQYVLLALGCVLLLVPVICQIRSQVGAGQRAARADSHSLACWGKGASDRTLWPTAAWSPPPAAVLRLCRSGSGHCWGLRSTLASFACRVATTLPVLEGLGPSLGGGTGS
Source text: A semi-automated approach using ImageJ software was employed to identify the areas of GFP-SR-B1 in the images. After background subtraction, an unsharp mask filter with a large radius was applied to locally enhance contrast. Manual thresholding of filtered images was then used to generate a segment mask, which could be overlaid on the original, background subtracted image to facilitate measurement of domain parameters such as area and mean intensity. […]
To calculate the linearity of the motion, we introduced a parameter rho (FIG. 3C), which is calculated as the ratio between the head-to-tail (first point to the end point) trajectory distance divided by the total distance traveled by fluorescent domains. […]
Fluorescence microscopy was performed using an A1R confocal microscope with assistance from the Northwestern University Center for Advanced Microscopy. Images were analyzed using NIS Elements (Nikon) and ImageJ (NIH) software. Live cell confocal fluorescence microscopy to assess lipid raft dynamics was performed with a Nikon Eclipse T1 microscope equipped with an Andor iXon Ultra 897 camera and analyzed using Metamorph software (Molecular Devices).

In the case of `CCCCCCC1CCCC1=NNC(N)=S` (stereo not drawn) [BLT-1, Blocks Lipid Transport 1], the “inhibition of cellular exosome uptake” value (A375 melanoma cells [1]) is reported as “did not result in the inhibition of exosome uptake”, the “3H-cholesterol efflux to hHDL and HDL NP with BLT-1 treatment” value (A375 melanoma cells [2]) is reported as “reduced efflux to both hHDLs and HDL NPs” and the “clustering of GFP-SR-B1” value (GFP-SR-B1) is reported as “did not result in the inhibition of exosome uptake or clustering of the receptor”.
